Experimental data from patent US5541174A, “Analgesic method” (priority 1995, dated 1996).

Columns and labels:
[1] = test system: acetic acid induced writhing in mice; assay: Acetic acid-induced writhing test; type: in vivo, ICR male mice
Method: 1. Acetic acid-induced writhing test as described in Koster et al., "Acetic Acid for Analgesic Screening", Fed. Proc. 18, 412 (1959), incorporated by reference herein; and
Groups of 10 ICR male mice (Taisho Pharmaceutical Co. Research Center) were used to study each dose of every compound. Ligands or complexes were administered orally or subcutaneously in 0.1 ml of vehicle per 10 g of body weight 30 minutes before the intrapertioneal injection of 0.1 ml of 0.7% acetic acid solution per 10 g of body weight. Number of writhes were counted for each mouse during a period of 10 to 20 min after acetic acid injection. Inhibitory percent was calculated by comparison with the number of writhes in the non-treated control, vehicle-treated, and acetic acid-injected group. The ED50 value and 95% confidence limits were calculated from the inhibitory percent by the method of Litchfield and Wilcoxon.

[2] = test system: adjuvant-induced arthritic pain in rats; assay: Adjuvant-induced arthritic pain; type: in vivo, male Sprague-Dawley rats
Text: 2. Adjuvant-induced arthritic pain as described in:
S. KUZNA, et al., Measurement of Arthritic Pain and Effects of Analgesics in the Adjuvant-Treated Rat, Chem. Pharm. Bull. 23, 1184-1191 (1975);
C. A. WINTER, et al., Analgesic Activity of Diflunisal in Rats with Hyperalygesia Induced by Freud's Adjuvant, J. Pharmacol. Exp. Ther. 211, 678-685 (1979; and
M. E. ROSENTHALE, et al., Adjuvant Arthritis:Immuno-Pathological and Hyperalgesic Features, Fed. Proced. 41, 2577-2582 (1982),
incorporated by reference herein.
Groups of 5-6 male Sprague-Dawley rats (Taisho Pharmaceutical Co. Research Center) weighing 140 to 160 g at the time of Mycobacterium butyricum (adjuvant, Difco Laboratories, Detroit, Mich.) injection were used to study each compound. Rats were injected intradermally at the base of the tail with 0.1 ml of a parafin oil suspension of 0.5 mg of heat-killed mycobacterium. Fifteen to 19 days later, drugs were administered orally or subcutaneously in 0.5 ml of vehicle per 100 g of body weight to rats showing the nociceptive reaction, vocalization following a gentle flexion of the tarsal-tibial joint of the inflamed hind-paw. Vocalization responses were measured every hour for 5 hours. […] The ED50 value and 95% confidence limits were calculated from the positive rate for non-treated controls, vehicle-treated adjuvant arthritic rats, by the method of Litchfield and Wilcoxin.
All drugs were suspended with 5% gum arabic in saline solution or wetted with enough propylene glycol to give a final concentration of 4% propylene glycol and the wetted solid suspended in 1.4% polyvinyl alcohol in saline.

[3] = oral, 5% gum arabic, 0.30 mmol/kg
[4] = oral, 5% gum arabic, 0.59 mmol/kg
[5] = oral, 5% gum arabic, 0.06 mmol/kg
[6] = oral, 5% gum arabic, 0.12 mmol/kg
[7] = oral, 5% gum arabic, 0.24 mmol/kg
[8] = oral, 5% gum arabic, 0.04 mmol/kg
[9] = oral, 5% gum arabic, 0.08 mmol/kg

## (Salicylato)2n -(aqua)4n -copper(II)n [Cu(II)(salicylate)2]
[1]; oral, 5% gum arabic in saline
  ED50: 0.65 mmol/kg
  analgesic effectiveness versus parent ligand: more effective than their parent ligands
[1]; [3]
  % Inhibition: 30%
[1]; [4]
  % Inhibition: 43%
[1]; oral, 5% gum arabic, 1.18 mmol/kg
  % Inhibition: 69%
[1]; oral, PG-PVA
  analgesic effectiveness versus parent ligand: more effective than their parent ligands
[1]; oral, PG-PVA in saline
  ED50: 1.53 mmol/kg
[1]; oral, PG-PVA, 0.30 mmol/kg
  % Inhibition: 20%
[1]; oral, PG-PVA, 0.59 mmol/kg
  % Inhibition: 27%
[1]; oral, PG-PVA, 1.18 mmol/kg
  % Inhibition: 46%
[1]; s.c., PG-PVA in saline
  ED50: 0.17 mmol/kg
[1]; s.c., PG-PVA, 0.07 mmol/kg
  % Inhibition: 40%
[1]; s.c., PG-PVA, 0.15 mmol/kg
  % Inhibition: 48%
[1]; s.c., PG-PVA, 0.30 mmol/kg
  % Inhibition: 66%
[2]; oral, 5% gum arabic
  analgesic effectiveness versus parent ligand: more effective than its parent ligand
[2]; oral, 5% gum arabic in saline
  ED50: 0.25 mmol/kg
[2]; oral, 5% gum arabic, 0.15 mmol/kg
  % Inhibition: 27%
[2]; [3]
  % Inhibition: 57%
[2]; [4]
  % Inhibition: 73%
[2]; oral, 5% gum arabic, FIG. 1, 5 hours post-treatment
  time course of analgesia: maintained or increased throughout the entire 5 hour post-treatment interval
[2]; oral, PG-PVA
  analgesic effectiveness versus parent ligand: more effective than its parent ligand
[2]; oral, PG-PVA in saline
  ED50: 0.12 mmol/kg
[2]; oral, PG-PVA, 0.15 mmol/kg
  % Inhibition: 30%
[2]; oral, PG-PVA, 0.30 mmol/kg
  % Inhibition: 47%
[2]; oral, PG-PVA, 0.59 mmol/kg
  % Inhibition: 90%
[2]; s.c., PG-PVA in saline
  ED50: 0.12 mmol/kg
[2]; s.c., PG-PVA, 0.04 mmol/kg
  % Inhibition: 20%
[2]; s.c., PG-PVA, 0.07 mmol/kg
  % Inhibition: 37%
[2]; s.c., PG-PVA, 0.15 mmol/kg
  % Inhibition: 57%

## Cu(II)2 (acetate)4
[1]; s.c., PG-PVA in saline
  ED50: 0.32 mmol/kg
[1]; s.c., PG-PVA, 0.21 mmol/kg
  % Inhibition: 42%
[1]; s.c., PG-PVA, 0.41 mmol/kg
  % Inhibition: 59%
[1]; s.c., PG-PVA, 0.83 mmol/kg
  % Inhibition: 61%
[1]; writhing model, Tables I and II
  effectiveness versus other compounds: more effective than anthranilic acid, salicylic acid, and aspirin
[2]; doses statistically significantly analgesic in the writhing model
  analgesic activity: devoid of analgesic activity
[2]; oral, PG-PVA in saline
  ED50: > 0.83 mmol/kg
[2]; oral, PG-PVA, 0.83 mmol/kg
  % Inhibition: 0%
[2]; s.c., PG-PVA in saline
  ED50: > 0.83 mmol/kg
[2]; s.c., PG-PVA, 0.83 mmol/kg
  % Inhibition: 3%

## Tetra(.eta.-acetylsalicylato)biscopper(II) [Cu(II)2 (aspirinate)4]
[1]; oral, 5% gum arabic in saline
  ED50: > 0.24 mmol/kg
  analgesic effectiveness versus parent ligand: more effective than their parent ligands
[1]; [5]
  % Inhibition: 37%
[1]; [6]
  % Inhibition: 38%
[1]; [7]
  % Inhibition: 33%
[1]; oral, PG-PVA
  analgesic effectiveness versus parent ligand: more effective than their parent ligands
[1]; oral, PG-PVA in saline
  ED50: 0.14 mmol/kg
[1]; oral, PG-PVA, 0.09 mmol/kg
  % Inhibition: 32%
[1]; oral, PG-PVA, 0.18 mmol/kg
  % Inhibition: 59%
[1]; oral, PG-PVA, 0.36 mmol/kg
  % Inhibition: 80%
[1]; s.c., PG-PVA in saline
  ED50: 0.04 mmol/kg
[1]; s.c., PG-PVA, 0.03 mmol/kg
  % Inhibition: 36%
[1]; s.c., PG-PVA, 0.06 mmol/kg
  % Inhibition: 59%
[1]; s.c., PG-PVA, 0.24 mmol/kg
  % Inhibition: 82%
[2]; oral, 5% gum arabic
  analgesic effectiveness versus parent ligand: more effective than their parent ligand
[2]; oral, 5% gum arabic in saline
  ED50: 0.29 mmol/kg
[2]; [5]
  % Inhibition: 7%
[2]; [6]
  % Inhibition: 17%
[2]; [7]
  % Inhibition: 43%
[2]; oral, PG-PVA in saline
  ED50: 0.09 mmol/kg
[2]; oral, PG-PVA, 0.03 mmol/kg
  % Inhibition: 13%
[2]; oral, PG-PVA, 0.06 mmol/kg
  % Inhibition: 30%
[2]; oral, PG-PVA, 0.12 mmol/kg
  % Inhibition: 60%
[2]; s.c., PG-PVA in saline
  ED50: 0.06 mmol/kg
[2]; s.c., PG-PVA, 0.03 mmol/kg
  % Inhibition: 23%
[2]; s.c., PG-PVA, 0.06 mmol/kg
  % Inhibition: 50%
[2]; s.c., PG-PVA, 0.12 mmol/kg
  % Inhibition: 73%

## [2[3(trifluoromethyl)phenyl]aminonicotinato]2n -(aqua)n -copper(II)n [Cu(II)2 (niflumate)4]
[1]; oral, 5% gum arabic in saline
  ED50: 0.09 mmol/kg
  analgesic effectiveness versus parent ligand: more effective than their parent ligands
[1]; [8]
  % Inhibition: 37%
[1]; [9]
  % Inhibition: 48%
[1]; oral, PG-PVA
  analgesic effectiveness versus parent ligand: more effective than their parent ligands
[1]; oral, PG-PVA in saline
  ED50: 0.10 mmol/kg
[1]; oral, PG-PVA, 0.06 mmol/kg
  % Inhibition: 33%
[1]; oral, PG-PVA, 0.12 mmol/kg
  % Inhibition: 57%
[1]; oral, PG-PVA, 0.24 mmol/kg
  % Inhibition: 73%
[1]; s.c., PG-PVA in saline
  ED50: 0.02 mmol/kg
[1]; s.c., PG-PVA, 0.01 mmol/kg
  % Inhibition: 37%
[1]; s.c., PG-PVA, 0.02 mmol/kg
  % Inhibition: 48%
[1]; s.c., PG-PVA, 0.04 mmol/kg
  % Inhibition: 58%
[2]; oral, 5% gum arabic
  analgesic effectiveness versus parent ligand: more effective than their parent ligand
[2]; oral, 5% gum arabic in saline
  ED50: 0.18 mmol/kg
[2]; [8]
  % Inhibition: 7%
[2]; [9]
  % Inhibition: 13%
[2]; oral, PG-PVA in saline
  ED50: > 0.16 mmol/kg
[2]; s.c., PG-PVA in saline
  ED50: 0.03 mmol/kg
[2]; s.c., PG-PVA, 0.01 mmol/kg
  % Inhibition: 17%
[2]; s.c., PG-PVA, 0.02 mmol/kg
  % Inhibition: 50%
[2]; s.c., PG-PVA, 0.04 mmol/kg
  % Inhibition: 60%
